Experiments:
Format in all cases: biochemical
[1] = molecular target: T1, ABCC10 (MRP7) (Homo sapiens, UniProt Q5T3U5); assay: Pi release ATPase inhibition assay; conditions: read-out: % inhibition at 0.625 μM
T1 sequence (Q5T3U5 1-1492): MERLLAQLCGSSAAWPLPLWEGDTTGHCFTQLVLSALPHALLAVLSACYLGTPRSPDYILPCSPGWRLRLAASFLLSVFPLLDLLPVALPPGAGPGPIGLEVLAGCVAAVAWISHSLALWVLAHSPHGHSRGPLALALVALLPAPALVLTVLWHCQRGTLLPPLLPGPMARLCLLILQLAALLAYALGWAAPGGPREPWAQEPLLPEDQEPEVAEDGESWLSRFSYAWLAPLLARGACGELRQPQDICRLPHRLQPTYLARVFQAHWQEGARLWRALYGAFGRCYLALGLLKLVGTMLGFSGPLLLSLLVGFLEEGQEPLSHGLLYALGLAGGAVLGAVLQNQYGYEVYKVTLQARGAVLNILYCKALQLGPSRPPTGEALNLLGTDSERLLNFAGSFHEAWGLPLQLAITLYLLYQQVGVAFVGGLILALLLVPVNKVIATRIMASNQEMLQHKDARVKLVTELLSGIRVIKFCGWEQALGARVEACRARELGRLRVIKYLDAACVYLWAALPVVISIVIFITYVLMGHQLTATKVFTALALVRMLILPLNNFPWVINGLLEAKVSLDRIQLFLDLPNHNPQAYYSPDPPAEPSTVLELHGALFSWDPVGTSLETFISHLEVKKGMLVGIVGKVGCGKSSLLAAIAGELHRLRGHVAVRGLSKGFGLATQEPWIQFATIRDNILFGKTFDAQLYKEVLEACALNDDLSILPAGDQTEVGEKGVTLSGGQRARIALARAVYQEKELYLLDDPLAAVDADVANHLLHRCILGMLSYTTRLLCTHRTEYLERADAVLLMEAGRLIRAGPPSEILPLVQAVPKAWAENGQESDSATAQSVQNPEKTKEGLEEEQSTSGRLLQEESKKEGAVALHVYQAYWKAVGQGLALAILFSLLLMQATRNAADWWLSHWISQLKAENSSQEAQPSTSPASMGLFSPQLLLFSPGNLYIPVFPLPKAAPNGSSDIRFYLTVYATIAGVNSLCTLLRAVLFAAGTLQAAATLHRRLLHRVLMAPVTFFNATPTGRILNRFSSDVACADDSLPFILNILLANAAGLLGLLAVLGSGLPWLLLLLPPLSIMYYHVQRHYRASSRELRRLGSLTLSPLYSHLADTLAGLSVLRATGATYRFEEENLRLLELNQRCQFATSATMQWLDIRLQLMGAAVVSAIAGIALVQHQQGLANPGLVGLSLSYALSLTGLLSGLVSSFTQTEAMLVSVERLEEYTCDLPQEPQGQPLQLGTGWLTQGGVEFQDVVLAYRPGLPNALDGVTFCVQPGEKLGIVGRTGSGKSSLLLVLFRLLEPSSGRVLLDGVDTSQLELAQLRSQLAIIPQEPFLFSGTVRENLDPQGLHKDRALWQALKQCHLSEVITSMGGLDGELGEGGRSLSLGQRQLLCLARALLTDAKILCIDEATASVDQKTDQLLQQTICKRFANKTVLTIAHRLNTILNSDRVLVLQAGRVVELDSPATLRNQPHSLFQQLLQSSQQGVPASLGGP

[2] = molecular target: T1, ABCC10 (MRP7); assay: Pi release ATPase stimulation assay; conditions: 5 mM ATP, Mg2+, pH 7.5, 37 °C; crude membranes
[3] = molecular target: T1, ABCC10 (MRP7); assay: Pi release ATPase inhibition assay; conditions: 5 mM ATP, Mg2+, pH 7.5, 37 °C; crude membranes
[4] = molecular target: T1, ABCC10 (MRP7); assay: Pi release ATPase stimulation assay; conditions: 5 mM ATP, Mg2+, pH 7.5, 37 °C; crude membranes; remark: listed apart in the source
[5] = molecular target: T1, ABCC10 (MRP7); assay: Pi release ATPase stimulation assay; conditions: 5 mM ATP, Mg2+, pH 7.5, 37 °C; crude membranes; remark: listed apart in the source

Q: `C#Cc1cccc(Nc2ncnc3cc(OCCOC)c(OCCOC)cc23)c1` [erlotinib] was tested. Which inhibition at 0.625 µM [1] did it give?
A: Its inhibition at 0.625 µM is 47%.

Q: Which inhibition at 0.625 µM [1] does the source give for `Cc1cn(-c2cc(NC(=O)c3ccc(C)c(Nc4nccc(-c5cccnc5)n4)c3)cc(C(F)(F)F)c2)cn1` [nilotinib] here?
A: Its inhibition at 0.625 µM is 41.4%.

Q: How did the “% stimulation of ATPase activity at 5 μM” value [2] turn out when `CC(=O)O[C@H]1C(=O)[C@@]2(C)[C@H]([C@H](OC(=O)c3ccccc3)[C@]3(O)C[C@H](OC(=O)[C@H](O)[C@@H](NC(=O)c4ccccc4)c4ccccc4)C(C)=C1C3(C)C)[C@]1(OC(C)=O)CO[C@@H]1C[C@@H]2O` [paclitaxel] was run?
A: The value was 15%.

Q: Which “% inhibition at 5 μM” value [3] does the source give for `Cc1ccc(NC(=O)c2ccc(CN3CCN(C)CC3)cc2)cc1Nc1nccc(-c2cccnc2)n1` [imatinib] here?
A: Its value is “cepharanthine, sorafenib, imatinib, nilotinib, erlotinib and lapatinib were effective inhibitors of ABCC10 ATPase activity”.

Q: Which “% stimulation of ATPase activity at 5 μM” value [2] does the source give for `CC(=O)O[C@@]12CO[C@@H]1C[C@H](O)[C@@]1(C)C(=O)[C@H](O)C3=C(C)[C@@H](OC(=O)[C@H](O)[C@@H](NC(=O)OC(C)(C)C)c4ccccc4)C[C@@](O)([C@@H](OC(=O)c4ccccc4)[C@H]21)C3(C)C` [docetaxel] here?
A: Its value is 24.38%.

Q: Which “% stimulation of ATPase activity” value [4] does the source give for `C[C@]12CC[C@@H]3c4ccc(O)cc4CC[C@H]3[C@@H]1CC[C@@H]2O[C@@H]1O[C@H](C(=O)O)[C@@H](O)[C@H](O)[C@H]1O` [E217βG] here?
A: Its value is 30%.

Q: How did the “% stimulation of ATPase activity at 0.625 μM” value [5] turn out when `Nc1ccn([C@@H]2O[C@H](CO)[C@@H](O)[C@@H]2O)c(=O)n1` [Ara-C] was run?
A: Its value is 31.8%.

Q: With `CNC(=O)c1cc(Oc2ccc(NC(=O)Nc3ccc(Cl)c(C(F)(F)F)c3)cc2)ccn1` [sorafenib] as the compound, how does the “% inhibition at 5 μM” value [3] read?
A: Its value is “cepharanthine, sorafenib, imatinib, nilotinib, erlotinib and lapatinib were effective inhibitors of ABCC10 ATPase activity”.
